# Experimental data published in patent publication US10555987B2, “GHRH agonists for the treatment of ischemic disorders” (UNIVERSITY OF MIAMI, priority 2012, dated 2020).
# Non-standard residues stand in square brackets, D forms with d. Residues, ends and D or L forms follow the SMILES beside them. NMeY = CN[C@@H](Cc1ccc(O)cc1)C(=O)O; Nle = CCCC[C@H](N)C(=O)O; Orn = NCCC[C@H](N)C(=O)O; Abu = CC[C@H](N)C(=O)O; Aoc = NCCCCCCCC(=O)O
# How the values were obtained:
# [1] = test system: GH release; assay: In vivo endocrine activity, GH release after intravenous administration (Table 8); conditions: rat, i.v. injection
# Protocol: In vivo tests on endocrine activity of new GHRH agonists (Intravenous administration). For in vivo tests based on intravenous administration, adult male Sprague-Dawley rats were anesthetized with pentobarbital (6 mg/100/g, b.w.), and GHRH agonists were injected 20 minutes after the injection of pentobarbital. Blood samples were taken from the jugular vein (pretreated level), immediately after hGHRH(1-29)NH2 injection (as a control) or after hGHRH analogs injection. Blood samples were taken from the jugular vein 5, 15 and 30 minutes after the injection. The blood samples were centrifuged, plasma was removed and the GH level was measured by ELISA.
# [2] = test system: GH release; assay: In vivo endocrine activity, GH release after subcutaneous administration (Table 9); conditions: rat, subcutaneous (s.c.) injection
# Protocol: Subcutaneous Administration. Adult male rats were used and anesthetized with pentobarbital (6 mg/100 g, b.w.), by i.p. injection. […] Blood samples were taken from the jugular vein 5, 15 and/or 30 minutes after the injection. The blood samples were centrifuged, plasma was removed and the GH level was measured byELISA. The results are summarized in terms of potency in Table 9.
# [3] = target: T1, GHRH receptor (Homo sapiens, UniProt Q02643); assay: GHRH receptor binding, competition with 125I-labeled JV-1-42, human pituitary membrane homogenates (Table 7); set-up: Normal human pituitaries were purchased from the National Hormone and Peptide Program; tissue National Hormone and Peptide Program (A.F. Parlow, Harbor-UCLA Medical Center, Torrance, Calif.); host or cells: normal human pituitary, membrane fraction; conditions: JI-38 = 1, Table 7
# T1 sequence (Q02643 23-423): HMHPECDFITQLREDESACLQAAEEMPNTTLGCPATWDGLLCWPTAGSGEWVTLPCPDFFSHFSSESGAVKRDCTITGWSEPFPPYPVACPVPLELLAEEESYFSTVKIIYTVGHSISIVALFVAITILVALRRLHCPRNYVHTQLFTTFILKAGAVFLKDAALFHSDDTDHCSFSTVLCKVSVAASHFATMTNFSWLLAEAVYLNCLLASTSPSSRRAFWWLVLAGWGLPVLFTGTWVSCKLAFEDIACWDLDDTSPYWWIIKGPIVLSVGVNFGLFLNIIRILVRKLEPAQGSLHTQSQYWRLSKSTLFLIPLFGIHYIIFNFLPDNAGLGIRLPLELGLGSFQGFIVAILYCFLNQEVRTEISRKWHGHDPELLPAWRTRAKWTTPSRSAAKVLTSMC
# Text: Normal human pituitaries were purchased from the National Hormone and Peptide Program (A.F. Parlow, Los Angeles, County Harbor-UCLA Medical Center, Torrance, Calif.).
# [4] = test system: myocardial infarction (Fisher-344 rats); assay: Serial echocardiography after MI, compared to JI-38 (Example 15, Table 15); type: in vivo, rat; set-up: key to LVEDD: Left Ventricular End Diastolic Diameter / LVESD: Left Ventricular End Systolic Diameter / VD: Ventricular Diastole / VS: Ventricular Systole / EF: Ejection Fraction / FS: Fraction Shortening: ↓: downward arrow denotes lower than JI-38; ↑: upward arrow denotes greater than JI-38; =denotes same as JI-38; ⬇⬇: double arrow denotes greater effect; ⬆⬆: double arrow denotes greater effect; conditions: in comparison to JI-38
# Protocol: Echocardiographic measurements were obtained at baseline, 2 days, 1, 2 and 4 weeks. Echocardiographic assessments were performed in anesthetized rats (2% isoflurane inhalation) using a Vevo-770 echocardiogram (Visual Sonics Inc., Toronto, Ontario, Canada) equipped with a 17.5-MHz transducer. Cardiac dimensions: LV end diastolic (LVEDD), end systolic (LVESD) diameters and fractional shortening (FS) were recorded from M-mode images using averaged measurements from 3 to 5 consecutive cardiac cycles according to the American Society of Echocardiography. Ejection fraction (EF) was calculated from bi-dimensional long-axis parasternal views taken through the infarcted area. All images were analyzed using Vevo 770 3.0.0 software (Visual Sonics Inc., Toronto, Ontario, Canada).
# (§1) Myocardial infarction (MI) was induced by permanent ligation of the left coronary artery in female 6-month-old Fisher-344 rats. Following experimental myocardial infarction (MI), rats were randomly assigned to receive either placebo, JI-38, or one of the following new analogs of GHRH: MR-30 l(P-21301), MR-303(P-21303), MR-356(P-20356), MR-502(25502), MR-350(P-20350), MR-36 l(P-20361), MR-367(P-20367), MR-403(P-27403), MR-404(P-27404), and MR-409(P-27409) (10 rats per each group). The GHRH peptide agonists were adminsistered starting 2 hours post-surgery, 1 week, 2 week, and 4 week intervals. All treatment was given subcutaneously twice daily. Cardiac performance was assessed by serial echocardiography and hemodynamic analysis derived from pressure-volume loops as described before.
# The echocardiographic experiments are shown in FIGS. 10-15 and the results are summarized in Table 15 (results were expressed in comparison to JI-38; downward arrow denotes lower than JI-38; upward arrow denotes greater than JI-38; =denotes same as JI-38; and double arrow denotes greater effect).
# [5] = test system: myocardial infarction (Fisher-344 rats); assay: Hemodynamic analysis (pressure-volume loops), body and heart weight after MI, compared to JI-38 (Example 15, Table 16); type: in vivo, rat; set-up: key to ESP (End-Systolic Pressure) / EDP (End-Diastolic Pressure) / ESV (End-Systolic Volume) / PRSW (Preload Recruitable Stroke Work) / Ees (End-systolic Elastance) / dP/dt max (peak rate of the pressure rise) / dP/dt max_EDV / dP/dt min / TAU (relaxation time constant calculated by Weiss method) / SV (Stroke Volume) / CO (Cardiac Output) / SW (Stroke Work) / EF / Ea/Ees / Ea (arterial Elastance): ↓: downward arrow denotes lower than JI-38; ↑: upward arrow denotes greater than JI-38; =denotes same as JI-38; ⬇⬇: double arrow denotes greater effect; ⬆⬆: double arrow denotes greater effect; conditions: rat MI model, s.c. twice daily; pressure-volume loops; expressed in comparison to JI-38
# Protocol: Rats were anesthetized by intramuscular injection of a mixture of ketamine (100 mg/kg), xylazine (20 mg/kg) and acepromazine (10 mg/kg). A 2-F micromanometer tipped catheter (SPR-838, Millar Instruments, Houston, Tex.) was inserted into the right carotid artery and advanced retrograde into the left ventricle. Measurements were calibrated by injecting a hypertonic saline (15%) bolus to determine extra-ventricular conductance; relative volume units were converted to actual volume using the cuvette calibration method. All analyses were performed using PVAN 3.0 software (Millar Instruments, Houston, Tex.).
# as §1
# The hemodynamic studies are shown in FIGS. 16-33 and the results are summarized in Table 16 (results were expressed in comparison to JI-38; downward arrow denotes lower than JI-38; upward arrow denotes greater than JI-38; =denotes same as JI-38; and double arrow denotes greater effect).
structure (smiles),measurement,setting,value
"CCCC[C@H](NC(=O)[C@@H](NC(=O)[C@H](CC(=O)O)NC(=O)[C@H](CCC(N)=O)NC(=O)[C@H](CC(C)C)NC(=O)[C@H](CC(C)C)NC(=O)[C@H](CCCN)NC(=O)[C@H](CCCNC(=N)N)NC(=O)[C@H](C)NC(=O)[C@H](CO)NC(=O)[C@H](CC(C)C)NC(=O)[C@H](CCC(N)=O)NC(=O)[C@H](CC)NC(=O)[C@H](CC(C)C)NC(=O)[C@@H](NC(=O)[C@H](CCCN)NC(=O)[C@H](CCCNC(=N)N)NC(=O)[C@H](Cc1ccc(O)cc1)NC(=O)[C@H](CO)NC(=O)[C@H](CC(N)=O)NC(=O)[C@@H](NC(=O)[C@H](Cc1ccccc1)NC(=O)[C@@H](NC(=O)[C@H](C)NC(=O)[C@H](CC(=O)O)NC(=O)[C@H](C)NC(=O)[C@H](Cc1ccc(O)cc1)NC)[C@@H](C)CC)[C@@H](C)O)C(C)C)[C@@H](C)CC)C(=O)N[C@@H](CC(=O)O)C(=O)N[C@@H](CCCNC(=N)N)C(=O)NCCCCCCCC(N)=O [Peptide P-21301, [N—Me-Tyr^1, Orn^12, Abu^15, Orn^21, Nle^27, Asp^28, Amc^30]hGHRH(1-30)NH2] (H-[NMeY]ADAIFTNSYR[Orn]VL[Abu]QLSAR[Orn]LLQDI[Nle]DR[Aoc]-NH2)",GH releasing potency in vivo relative to JI-38 (=1),[1]; 5 min after,0.79
same,GH releasing potency in vivo relative to JI-38 (=1),[1]; 15 min after,0.92
same,GH releasing potency in vivo relative to JI-38 (=1),[1]; 30 min after,1.00
same,GH releasing potency relative to JI-38 (=1),[2]; 15 min after,0.41
same,GH releasing potency relative to JI-38 (=1),[2]; 30 min after,0.74
same,Relative affinity (Binding potency) vs JI-38,[3],1.45
same,EF: Ejection Fraction,[4],↓
same,FS: Fraction Shortening,[4],=
same,LVEDD: Left Ventricular End Diastolic Diameter,[4],↑
same,LVESD: Left Ventricular End Systolic Diameter,[4],↑
same,VD: Ventricular Diastole,[4],↑
same,VS: Ventricular Systole,[4],↑
same,CO (Cardiac Output),[5],=
same,EDP (End-Diastolic Pressure),[5],↑
same,EF,[5],↓
same,ESP (End-Systolic Pressure),[5],↓
same,ESV (End-Systolic Volume),[5],↑
same,Ea (arterial Elastance),[5],=
same,Ea/Ees,[5],↑
same,Ees (End-systolic Elastance),[5],=
same,PRSW (Preload Recruitable Stroke Work),[5],=
same,SV (Stroke Volume),[5],=
same,SW (Stroke Work),[5],↓
same,TAU (relaxation time constant calculated by Weiss method),[5],=
same,dP/dt max (peak rate of the pressure rise),[5],↓
same,dP/dt max_EDV,[5],↓
same,dP/dt min,[5],=
